Measurements as given in patent publication US7629135B2, “Toll-like receptor agonists and antagonists and methods of use thereof” (The Board of Trustees of the University of Illinois, priority 2006, dated 2009).

Legend:
[1] = tested on: mouse bone marrow derived macrophages (BMDM); experiment: G-CSF secretion in mouse BMDM (ELISA); format: cell-based; conditions: for G-CSF secretion by FPRL1 agonists: 16 h
Method: SAA induces G-CSF expression in monocytes and macrophages: To determine whether SAA plays a role in neutrophilia, the ability of SAA to stimulate G-CSF expression was investigated. Human peripheral blood monocytes (PBMC) were incubated with SAA, and the concentration of secreted G-CSF in the culture medium was determined at various time points after stimulation. The concentration of SAA used in this experiment (1 μM) was well within its physiological range (0.08 μM to 80 μM). […] Since subsequent studies used mice for measurement of G-CSF secretion and neutrophilia, SAA-induced G-CSF expression in mouse bone marrow derived macrophages (BMDM) was determined, of which 98% were F4/80^+ CD14^+ based on flow cytometry analysis. […] The basal level of G-CSF remained stable at approximately 42 pg/ml/10^6 cells over the entire course of incubation.
It was next determined whether induction of G-CSF expression was a primary function of SAA or resulted from contaminating LPS in the SAA preparation. The LPS concentration in the recombinant SAA preparation was ≦0.1 ng/μg protein, translating into ≦1.14 ng/ml LPS in a typical experiment with 1 μM SAA. LPS at this or 10-fold higher concentrations was tested for its effect on the expression of G-CSF. […] Given that most proteins are heat labile while LPS is heat resistant, the ability of heat-treated SAA (1 μM) and LPS (1 μg/ml) to stimulate G-CSF secretion in mouse BMDM was examined. After boiling for 25 min, LPS retained its ability to induce G-CSF production by ˜83%. […] In parallel experiments, polymyxin B, an amphiphilic cyclic polycationic peptide that specifically binds to LPS and blocks the cytokine-inducing effect of LPS (Stokes et al., 1989), was used to treat SAA or LPS prior to incubation with BMDM. […] Under the same experimental conditions, polymyxin B reduced LPS-stimulated G-CSF secretion by more than 70%.
It was previously shown that FPRL1 is involved in SAA-induced IL-8 production in human neutrophils (He et al., 2003). It has also been shown that SAA binds to FPRL1 and stimulates the production of matrix metalloproteinase (O'Hara et al., 2004). […] A role of TLR2 in SAA-stimulated G-CSF expression was examined.
Cell preparation and culture: Human peripheral blood monocytes were prepared from fresh, heparinized venous blood by Ficoll-Hypaque density-gradient centrifugation. Blood drawing followed a protocol approved by the Institutional Review Board at the University of Illinois at Chicago. Purified monocytes (>93% CD14^+ by flow cytometry) were kept in nonadherent condition in RPMI 1640 containing 0.5% FBS and maintained at 37° C. Mouse macrophages were differentiated from bone marrow cells. Mouse bone marrow cells were aspirated from the femurs of 8-12-week-old mice and cultured at 37° C. in 5% CO2 in RPMI 1640 medium containing 10% FBS, 15% L-cell conditional medium, 10 mM HEPES, 2 mM L-glutamine, 100 IU/ml penicillin, and 50 μg/ml streptomycin. The medium was changed every three days. Macrophages (about 98% F4/80+ by flow cytometry) were obtained after 7 days of culture. The mouse macrophage cell line RAW264.7 cells were maintained in DMEM medium supplemented with 10% FBS, 10 mM HEPES, 2 mM L-glutamine, 100 IU/ml penicillin, and 50 μg/ml streptomycin. TLR2-HeLa cells were generated by transfection of HeLa cell with the expression construct pUNO-hTLR2 (InvivoGen). Stable transfectants were selected with Blasticidin at 20 μg/ml for 2 weeks. Mock-transfected HeLa cells were generated similarly, with a pUNO empty vector. Cells were maintained in DMEM supplemented with 10% heat-inactivated FBS, 2 mM L-glutamine, 100 IU/ml penicillin, and 50 μg/ml streptomycin. Expression of TLR2 was confirmed using an anti-TLR2 antibody (eBioscience) and FTTC-conjugated anti-mouse antibody, on a FACSCalibur flow cytometer (Becton Dickinson). FIGS. 12 and 13 are plasmid maps of pUNO-hTLR2 and pNF-κB-Luc, respectively. […]

[2] = tested on: RelA/p65 binding to the CK-1 site of the G-CSF promoter; experiment: Chromatin immunoprecipitation (ChIP) assay in RAW264.7 cells; format: cell-based, mouse; conditions: SAA 1 μM or TNFα 50 ng/ml
Method: To investigate the mechanism for SAA-induced G-CSF production, the level of G-CSF transcript in SAA-stimulated BMDM was determined. […] The induction of G-CSF transcript peaked at 4 h after SAA stimulation. Since transcription of the G-CSF gene involves NF-κB binding to the RelA/p65 consensus element in the CK-1 site of the G-CSF promoter (Dunn et al., 1994; Hareng and Hartung, 2002), the role of NF-κB in SAA-stimulated G-CSF expression was determined. […] Using oligonucleotide probe based on the sequence of the CK-1 site (−161 to −152 in the G-CSF promoter), a protein •DNA complex (FIG. 2C) was identified. […] Inclusion of a RelA/p65 antibody blocking peptide in the assay abrogated the immunoprecipitation (FIG. 2D).
ChIP assay: Reagents were obtained from Upstate Biotechnology, and ChIP assay was performed as per manufacturers specifications with minor modifications. Briefly, a total of 1×10^7 RAW264.7 cells were harvested and resuspended in a serum-free DMEM medium absence or presence of 1 μM SAA, or 50 ng/ml of TNFα, and incubated for 30 or 60 min at 37° C. Following stimulation, cells were crosslinked and then washed and resuspended in SDS-lysis buffer, and were sonicated (4 times for 10 s each, with a setting at ‘4’ on a Fisher Sonic 60 dismembrenator). […] The PCR products were analyzed on a 2.5% agarose gel.

[3] = biological target: T1, TLR2 (Homo sapiens, UniProt O60603); experiment: NF-κB luciferase reporter assay in TLR2-HeLa cells; format: cell-based; conditions: HDL preincubation
T1 construct: host or cells: HeLa
T1 sequence (O60603 21-784): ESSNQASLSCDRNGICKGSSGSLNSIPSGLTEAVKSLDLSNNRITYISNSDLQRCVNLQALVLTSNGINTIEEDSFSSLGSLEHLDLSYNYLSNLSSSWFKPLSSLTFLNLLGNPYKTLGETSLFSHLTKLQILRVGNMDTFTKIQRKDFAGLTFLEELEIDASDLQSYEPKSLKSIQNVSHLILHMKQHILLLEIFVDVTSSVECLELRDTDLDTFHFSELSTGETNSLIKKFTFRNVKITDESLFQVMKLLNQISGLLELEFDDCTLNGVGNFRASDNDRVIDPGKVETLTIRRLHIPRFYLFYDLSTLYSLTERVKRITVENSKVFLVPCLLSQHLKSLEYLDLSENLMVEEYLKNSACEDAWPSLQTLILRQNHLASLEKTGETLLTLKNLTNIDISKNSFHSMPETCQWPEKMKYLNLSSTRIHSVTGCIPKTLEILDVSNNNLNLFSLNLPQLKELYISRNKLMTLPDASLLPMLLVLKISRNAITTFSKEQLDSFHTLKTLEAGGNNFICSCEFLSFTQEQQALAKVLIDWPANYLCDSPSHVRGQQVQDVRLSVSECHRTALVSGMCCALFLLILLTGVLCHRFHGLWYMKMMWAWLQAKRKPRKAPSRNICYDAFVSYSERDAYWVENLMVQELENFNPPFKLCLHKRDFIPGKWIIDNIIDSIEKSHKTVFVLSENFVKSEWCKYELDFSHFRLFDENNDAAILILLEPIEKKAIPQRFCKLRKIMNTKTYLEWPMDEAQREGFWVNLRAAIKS
T1 sequence (Q15399 25-786 partner): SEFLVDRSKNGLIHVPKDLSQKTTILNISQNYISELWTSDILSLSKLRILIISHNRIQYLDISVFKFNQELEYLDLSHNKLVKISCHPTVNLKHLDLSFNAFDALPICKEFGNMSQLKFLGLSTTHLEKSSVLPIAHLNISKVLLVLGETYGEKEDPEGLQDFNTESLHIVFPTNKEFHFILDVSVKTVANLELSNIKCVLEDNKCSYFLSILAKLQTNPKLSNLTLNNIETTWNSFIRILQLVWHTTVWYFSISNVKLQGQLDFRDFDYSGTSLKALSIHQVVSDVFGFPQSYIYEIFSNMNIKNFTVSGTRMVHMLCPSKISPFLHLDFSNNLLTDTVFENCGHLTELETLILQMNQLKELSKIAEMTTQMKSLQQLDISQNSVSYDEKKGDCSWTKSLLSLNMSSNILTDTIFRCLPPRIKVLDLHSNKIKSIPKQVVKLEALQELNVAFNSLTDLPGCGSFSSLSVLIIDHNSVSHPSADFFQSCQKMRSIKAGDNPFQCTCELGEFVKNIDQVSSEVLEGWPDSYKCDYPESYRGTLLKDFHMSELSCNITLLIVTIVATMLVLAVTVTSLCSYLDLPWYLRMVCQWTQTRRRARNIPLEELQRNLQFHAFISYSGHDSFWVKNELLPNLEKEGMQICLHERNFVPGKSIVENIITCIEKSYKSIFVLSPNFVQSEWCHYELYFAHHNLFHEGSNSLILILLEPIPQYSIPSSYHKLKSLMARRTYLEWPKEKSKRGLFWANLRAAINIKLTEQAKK
Method: To determine whether TLR2 is a receptor for SAA, a TLR2-expressing cell line was prepared in HeLa cells, which contain very little endogenous TLR2 transcript (FIG. 6A, upper panel). […] TLR2 is a class I transmembrane protein that contains an extracellular ligand binding domain (ectodomain), a transmembrane domain and a cytoplasmic domain consisting of the Toll/IL-1/receptor/Resistance (TIR) motif. Studies have shown that TLR2 forms heterodimers with TLR1 and TLR6 (Ozinsky et al., 2000), which display different preference for TLR2 ligands (Hoebe et al., 2005; Takeuchi et al., 2002). The C-terminal TIR domain is conserved among TLRs and responsible for TLR signaling (O'Neill and Bowie, 2007; Takeda and Akira, 2004). To assess the relative contributions of TLRs to SAA signaling, TLR1, TLR2, TLR4 and TLR6 were overexpressed in the TLR2-HeLa cells, and their effects on SAA-induced NF-κB luciferase reporter activity were determined. […] In addition, the TIR domain deletion mutants (ΔTIR) of these receptors were expressed, which are negative regulators of TLR signaling.
Methods for the generation of TLR2-HeLa stable cell line: HeLa cells stably transfected with human TLR2 gene were generated by transfecting HeLa cells with the expression construct pUNO-hTLR2 (InvivoGen, San Diego, Calif.; GenBank accession number for human TLR2 cDNA is NM_003264) and selected with Blasticidin at concentration of 20 μg/ml for 2 weeks. The control HeLa cells were generated at the same time by transfecting with empty pUNO vector. Cells were maintained in DMEM supplemented with 10% heat-inactivated FB S, 2 mM L-glutamine, 100 IU/ml penicillin, and 50 μg/ml streptomycin. Expression of TLR2 was confirmed using an anti-TLR2 antibody (eBioscience) and FTTC-conjugated anti-mouse antibody, on a FACSCalibur flow cytometer (Becton Dickinson). The TLR2-HeLa and control cells were then co-transfected with 5xNF-κB reporter plasmids (pNF-κB-Luc, Stratagene, Cedar Creek, Tex., catalog no. 219077) and empty SFFV vector bearing a neomycin resistant gene. The TLR2-HeLa/NF-κB reporting cells were obtained after selecting with G418 at concentration of […] for 2-3 weeks. Cells (5′10^5/ml) were grown in DMEM supplemented with 10% heat-inactivated FBS, 2 mM L-glutamine, 100 IU/ml penicillin, and […] streptomycin.
Methods for using HeLa cells in reporter assay: Mock-transfected HeLa and TLR2-HeLa cells were maintained at ˜5×10^5 cells/well in six-well plates, transfected with plasmid expression vectors coding for a 3×κB-directed luciferase reporter, pCMVβ vector DNA (Promega) and/or other expression constructs as indicated. Total DNA concentration was adjusted to 1 μg/sample by addition of empty vector DNA. Transient transfection was performed using LipofectAmine Plus reagent (Invitrogen). […]

Molecule: LESIFRSLLFRVM [MMK-1, reference compound]
- G-CSF secretion by FPRL1 agonists ([1]; BMDM): unable to stimulate G-CSF secretion

Molecule: Polymyxin B [reference compound]
- reduction of LPS-stimulated G-CSF secretion ([1]; polymyxin B 50 μg/ml pretreatment of LPS 1 μg/ml, BMDM): more than 70%
- effect on potency of SAA in stimulating G-CSF expression ([1]; polymyxin B 50 μg/ml pretreatment of SAA, BMDM): minimal effect

Molecule: TNFα [reference compound]
- pull-down of CK-1 DNA fragment by anti-RelA/p65 antibody [2]: able to pull-down the CK-1 DNA fragment

Molecule: WKYMVm [reference compound]
- G-CSF secretion by FPRL1 agonists ([1]; BMDM): unable to stimulate G-CSF secretion

Molecule: pertussis toxin [reference compound]
- inhibition of SAA-induced G-CSF secretion ([1]; BMDM pretreated overnight with pertussis toxin up to 200 ng/ml, then SAA 16 h): no significant inhibition

B1: L7A: SAA with Leucine to Alanine mutation at position 7 (protein)
chain: RSFFSFAGEAFDGARDMWRAYSDMREANYIGSDKYFHARGNYDAAKRGPGGAWAAEVITDARENIQRFFGHGAEDSLADQAANEWGRSGKDPNHFRPAGLPEKY
- effect of L7A mutation of SAA on the reduction by HDL of NF-κB activation [3]: partially reversed the reduction effect by HDL
